Laboratory results published in US20240083921A1, “BORATE DERIVATIVE AND USES THEREOF” (Reistone Biopharma Company Limited, priority 2020, published 2024).
Where two headings read alike, the source gives them in different places. Blank lines part the entries; values can stand above or below the compound they belong to.

Experiments:
PDE4B1 enzyme = PDE4B1 enzyme (Homo sapiens (Human), UniProt Q07343); experiment: In vitro PDE4B enzyme activity detection test (IMAP FP, FAM-cAMP substrate); assay type: biochemical; details: PDE4B1 0.04 nM, FAM-cAMP 0.1 μM, 25° C. 30 min
PDE4B1 enzyme, sequence (Q07343 whole entry): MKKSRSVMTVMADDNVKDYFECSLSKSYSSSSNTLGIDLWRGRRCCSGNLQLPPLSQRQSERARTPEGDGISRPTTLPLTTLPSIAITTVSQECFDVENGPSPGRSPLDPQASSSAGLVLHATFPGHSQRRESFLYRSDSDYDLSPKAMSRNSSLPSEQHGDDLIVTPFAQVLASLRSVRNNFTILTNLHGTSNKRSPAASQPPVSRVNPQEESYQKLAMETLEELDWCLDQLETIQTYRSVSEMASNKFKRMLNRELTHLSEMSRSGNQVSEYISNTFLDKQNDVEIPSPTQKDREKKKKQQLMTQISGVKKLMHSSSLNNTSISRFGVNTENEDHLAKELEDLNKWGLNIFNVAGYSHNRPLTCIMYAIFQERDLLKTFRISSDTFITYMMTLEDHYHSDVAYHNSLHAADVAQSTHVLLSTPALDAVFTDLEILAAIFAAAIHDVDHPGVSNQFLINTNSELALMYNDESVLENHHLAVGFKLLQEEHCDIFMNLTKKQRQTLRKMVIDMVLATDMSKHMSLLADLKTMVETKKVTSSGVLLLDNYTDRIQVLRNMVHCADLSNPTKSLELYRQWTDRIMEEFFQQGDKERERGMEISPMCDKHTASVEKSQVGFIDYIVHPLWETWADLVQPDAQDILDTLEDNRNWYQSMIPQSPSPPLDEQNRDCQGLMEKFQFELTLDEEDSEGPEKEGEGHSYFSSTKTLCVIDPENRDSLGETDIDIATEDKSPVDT
Description: Test Example 1 In vitro PDE4B Enzyme Activity Detection Test
1. Experimental Materials
First, a stock solution of the compound at a concentration of 10 mM was prepared in a test tube with 90% DMSO (10% water), and it was used to prepare a series of dilutions with a dilution factor of 1:5 and final concentrations starting from 100 μM to as low as 0.05 nM.
0.2 μl of the compound solution was transferred into a 384-well reaction plate, and 0.2 μl of 100% DMSO was transferred into both the negative and positive controls. Then, 10 μl of 2×PDE4B1 enzyme solution (making a final concentration of 0.04 nM) was added to each well, and 10 μl of 1×reaction buffer instead of the enzyme solution was added to the zero enzyme activity control wells. The plate was centrifuged at 1,000 rpm for 1 min and incubated at room temperature for 15 min. Next, 10 μl of 2×FAM-cAMP substrate solution (making a substrate final concentration of 0.1 μM) was added to each well of the 384-well reaction plate. The plate was centrifuged at 1,000 rpm for 1 min and the reaction was carried out at 25° C. for 30 min. After completion of the reaction, 60 μl of reaction stop solution was added to each well of the 384-well reaction plate to terminate the reaction, and the plate was incubated with shaking at 600 rpm on a shaker at room temperature in the dark for 60 min.
After the incubation, the RLU data were read and the inhibition rate was calculated. The IC50 value was calculated from the concentration-inhibition fitted curve, wherein the maximum value refers to the reading of the DMSO control and the minimum value refers to the reading of the zero enzyme activity control.
The in vitro inhibition of PDE4B1 enzyme activity by the Examples of the present disclosure was determined by the above test, and the measured IC50 value was shown in Table 1.

[1] = tested on: TNF-α release from peripheral blood mononuclear cells (PBMCs); experiment: Inhibition of pro-inflammatory cytokine (TNF-α) release from LPS-stimulated PBMCs, ELISA; assay type: cell-based; details: LPS 0.1 ng/ml, 24 hours
From the text: Test Example 2 Inhibitory Effect of Compounds on the Release of Pro-Inflammatory Cytokines from Peripheral Blood Mononuclear Cells (PBMCs)
Frozen PBMCs were thawed and detected by Trypan blue staining for cell viability and number. The thawed PBMCs were washed with RPMI1640 complete medium (RPMI1640+10% FBS+1% PS) and centrifuged, and the supernatant was discarded. The PBMCs were resuspended with RPMI1640 complete medium and the cell density was adjusted to 2×10^6 cells/mL. 2×10^5 PBMC cells were plated in a 96-well cell culture plate, and the compounds to be tested were added at different concentrations, in a 1:5 serial dilution of 9 concentrations starting from a maximum compound concentration of 100 μM, each in duplicate. LPS was added at a final concentration of 0.1 ng/ml, making a total volume of 200 μL. For the negative and positive controls, only LPS and DMSO were added to the negative control well, while 1 μg/mL of dexamethasone was added to the positive control well in addition to cells and LPS as. The cells were incubated in an incubator at 37° C. for 24 hours. After completion of the incubation, 100 μL of cell culture supernatant was collected and detected by ELISA for the TNF-α level. 100 μL of CellTiter-Glo was added to the remaining cells in each well to detect the cell viability level. The IC50 value of inhibition of TNF-α release by the compounds was calculated.
The in vitro inhibition of pro-inflammatory cytokine release of PBMCs by the Examples of the present disclosure was determined by the above test, and the determined IC50 value was shown in Table 2.

[2] = tested on: IL-23 secretion of DC cells differentiated from human mononuclear cells; experiment: In vitro inhibition of IL-23 secretion of DC cells differentiated from human mononuclear cells, Zymosan stimulation, ELISA; assay type: cell-based; details: Table 3: inhibition of IL-23 secretion of DC cells, Zymosan 200 μg/ml, 24 hours
Description: Test Example 3 Experiment of in vitro Inhibition of IL-23 Secretion of DC Cells Differentiated from Human Mononuclear Cells by the Compounds
Day 0: Mononuclear cells were isolated from fresh human peripheral blood and purified and then resuspended in RPMI-1640 complete medium (RPMI-1640+10% FBS+1% P.S.+55 μM 2-Mercaptoethanol). When differentiating into DC cells, IL-4 at a concentration of 50 ng/ml and GM-CSF at 100 ng/ml were added to the medium. The cells were cultured at a density of 1×10^6 cells/mL in a culture dish with a diameter of 100 mm for differentiation in an incubator at 37° C. with a carbon dioxide concentration of 5%. Day 3: Half the volume of RPMI complete medium was replaced with fresh RPMI complete medium while maintaining the concentration of IL-4 at 50 ng/ml and GM-CSF at 100 ng/ml. Day 6: Non-adherent cells (DC cells) in the culture dish were collected and washed with PBS. The washed DC cells were resuspended with RPMI complete medium at a density of 1×10^6 cells/mL. Then. 1×10^5 DC cells were added to each well of the 96-well cell culture plate and pre-incubated with different dilutions of the compounds to be tested (or DMSO blank negative control at equivalent concentration) for 1 hour, followed by addition of 200 μg/ml of the TLR2 agonist Zymosan to stimulate the DC cells for 24 hours. Day 7: After 24 hours of Zymosan stimulation of DC cells. the supernatant in each well of the 96-well plate was collected and detected by ELISA for the concentration of IL-23.
The inhibition of IL-23 secretion of DC cells differentiated from human mononuclear cells by the compounds of the present disclosure was determined by the above test, and the determined IC50 value was shown in Table 3.

[3] = tested on: imiquimod-induced psoriasis mouse model; experiment: Suppression of imiquimod-induced psoriasis in mice (topical ointment); assay type: in vivo, Balb/c female mice; details: for Ratio of spleen weight to body weight Mean / Total clinical score Mean / Erythema score Mean / Scale score Mean / Thickness score Mean: IMQ mice; for Ratio of spleen weight to body weight Mean: Day 7, percentage of spleen to body weight; for Total clinical score Mean: endpoint; for Erythema score Mean / Scale score Mean / Thickness score Mean: scale 0-4; for clinical score at the endpoint (statement): each dose of Compound 12-1; for clinical score at the endpoint (statement) / effect on the ratio of spleen weight to body weight (statement): versus model; for effect on the ratio of spleen weight to body weight (statement): three dose groups of Compound 12-1
From the text: Test Example 4 Experiment of Suppression of Imiquimod-Induced Psoriasis
An appropriate amount of Compound 12-1 was formulated into an ointment with the following components: 0.1% of Compound 12-1, 9% of hexanediol, 78.8% of white petrolatum, 5% of paraffin, 7% of glyceryl mono- and distearate, and 0.1% of […], which were mechanically stirred until an ointment was formed.
1) Model Establishment and Drug Administration
7-Week-old Balb/c female mice were used and the hair on their back in an area of 2 cm×3 cm was shaved the day before the experiment. On Days 1-7 of the experiment, the test compounds were applied on the skin for 6 hours, and then imiquimod (IMQ) ointment (Aldara (5%)) was continuously applied to the back skin of mice for 7 days, so as to establish a mouse model of psoriasis, while the control group was given the same dose of petrolatum ointment. On Days 3, 5 and 7, the severity of skin inflammation was assessed, including measurement of skin thickness, crusting and erythema, scored on a 5-point scale (0-4) respectively. The total score was used to assess the severity of skin inflammation. On Day 7 of the experiment, the spleen was collected and weighed, and the percentage of spleen to body weight was calculated to assess the immunosuppressive effect of the drug.
Normal control group, model control group, low, medium and high dose groups of Compound 12-1 (0.01%, 0.03% and 0.1%), 0.03% Compound 1-1 group, and 0.03% reference Compound A group were set up in this experiment.
The total score of the degree of skin inflammation was the clinical score, the indicators of which were relatively subjective, and higher score indicated more serious disease. The degree of increase in skin thickness was an objective assessment indicator, and more increase in thickness indicated more serious disease. The ratio of spleen weight to body weight was an objective assessment indicator, and smaller ratio of spleen weight to body weight indicated stronger immunosuppressive effect of the drug.

[4] = Compound A 0.03%, Compound 1-1 0.03%

Structure (SMILES): COc1ccc(-c2cncc([C@@H]3COB(O)C3)c2)c2c1OC1(CCCC1)C2 [Compound 1-1]
- IC50 (PDE4B1 enzyme): 0.11 nM
- IC50 ([1]; read-out: PBMC IC50): 0.32 nM
- IC50 ([2]; read-out: PBMC IC50): 0.12 nM
- Ratio of spleen weight to body weight Mean ([3]; 0.03% applied on skin): 0.63
- Total clinical score Mean ([3]; 0.03% applied on skin): 8.5
- Erythema score Mean ([3]; 0.03% applied on skin): 3.63
- Scale score Mean ([3]; 0.03% applied on skin): 2.75
- Thickness score Mean ([3]; 0.03% applied on skin): 2.13
- single item scores (statement) ([3]; Compound 1-1 0.03%, each dose group of Compound 12-1): mainly improve scab and reduce skin thickness
- clinical score at the endpoint (statement) [3, 4]: significantly reduce the clinical score
- effect on the ratio of spleen weight to body weight (statement) [3, 4]: significantly reduce the ratio of spleen weight to body weight
- effect on the ratio of spleen weight to body weight compared with Compound A ([3]; same dose (0.03%)): significantly different from that of Compound A

Structure (SMILES): COc1ccc(-c2cc(C3COB(O)C3)cnn2)c2c1OC1(CCCC1)C2 (stereo not drawn) [Compound 5]
- IC50 ([1]; PBMC): 1.56 nM

Structure (SMILES): COc1ccc(-c2cncc(C3COB(O)C3)c2)c2cc(C(F)(F)F)nn12 (stereo not drawn) [Compound 7]
- IC50 (PDE4B1 enzyme): 0.055 nM
- IC50 ([1]; PBMC): 0.36 nM

Structure (SMILES): COc1ccc(-c2cncc(C3COB(O)C3)c2)c2c1OC(C)(C)CO2 (stereo not drawn) [Compound 8]
- IC50 ([1]; PBMC): 0.74 nM

Structure (SMILES): COc1ccc(-c2cncc(C3COB(O)C3)c2)c2c1OC(C)(C)CC2 (stereo not drawn) [Compound 9]
- IC50 (PDE4B1 enzyme): 0.25 nM
- IC50 ([1]; PBMC): 0.3 nM

Structure (SMILES): O=C(Nc1c(Cl)cncc1Cl)c1ccc(OC(F)F)c(OCC2CC2)c1 [Roflumilast, reference compound]
- IC50 ([2]; Homo sapiens, PBMC): 12.9 nM

Second part, led by results:

- IC50 (PDE4B1 enzyme): 0.4 nM
Structure (SMILES): COc1ccc(-c2cncc([C@H]3COB(O)C3)c2)c2c1OC1(CCCC1)C2 [Compound 1-2]
- IC50 ([1]; read-out: PBMC IC50): 3.26 nM

- IC50 (PDE4B1 enzyme): 4.5 nM
Structure (SMILES): COc1ccc(-c2cncc(C3COB(O)C3)c2)c2c1OC(C)C2 (stereo not drawn) [Compound 2]

- IC50 (PDE4B1 enzyme): 1.1 nM
Structure (SMILES): COc1ccc(-c2cccc(C3COB(O)C3)c2)c2c1OC1(CCCC1)C2 (stereo not drawn) [Compound 3]

- IC50 (PDE4B1 enzyme): 0.083 nM
Structure (SMILES): COc1ccc(-c2cncc(C3COB(O)C3)n2)c2c1OC1(CCCC1)C2 (stereo not drawn) [Compound 4]
- IC50 ([1]; PBMC): 2.15 nM

- IC50 (PDE4B1 enzyme): 0.41 nM
Structure (SMILES): COc1ccc(-c2cncc(C3COB(O)C3)c2)c2c1OC(C)(C)C2 (stereo not drawn) [Compound 6]
- IC50 ([1]; PBMC): 1.56 nM

- IC50 (PDE4B1 enzyme): 0.16 nM
Structure (SMILES): COc1ccc(-c2cncc(C3COB(O)C3)c2)c2ccc(C(F)(F)F)nc12 (stereo not drawn) [Compound 10]
- IC50 ([1]; PBMC): 0.9 nM

- IC50 ([2]; Homo sapiens, PBMC): 0.018 nM
Structure (SMILES): COc1ccc(-c2cncc([C@@H]3COB(O)C3)n2)c2c1OC(C)(C)CC2 [Compound 12-1]
- IC50 ([1]; PBMC): 0.055 nM
- Ratio of spleen weight to body weight Mean ([3]; 0.01% applied on skin): 0.64
- Total clinical score Mean ([3]; 0.01% applied on skin): 9.5
- Erythema score Mean ([3]; 0.01% applied on skin): 4
- Scale score Mean ([3]; 0.01% applied on skin): 3.13
- Thickness score Mean ([3]; 0.01% applied on skin): 2.38
- Ratio of spleen weight to body weight Mean ([3]; 0.03% applied on skin): 0.43
- Total clinical score Mean ([3]; 0.03% applied on skin): 7.57
- Erythema score Mean ([3]; 0.03% applied on skin): 3.86
- Scale score Mean ([3]; 0.03% applied on skin): 2.14
- Thickness score Mean ([3]; 0.03% applied on skin): 1.57
- Ratio of spleen weight to body weight Mean ([3]; 0.1% applied on skin): 0.31
- Total clinical score Mean ([3]; 0.1% applied on skin): 6.75
- Erythema score Mean ([3]; 0.1% applied on skin): 3.63
- Scale score Mean ([3]; 0.1% applied on skin): 1.38
- Thickness score Mean ([3]; 0.1% applied on skin): 1.75

- IC50 (PDE4B1 enzyme): 0.3 nM
- IC50 ([2]; Homo sapiens, PBMC): 0.61 nM
Structure (SMILES): CCCOc1cc(-c2cncc([C@@H]3COB(O)C3)c2)ccc1OC [Compound A, reference compound]
- IC50 ([1]; PBMC): 1.16 nM
- Ratio of spleen weight to body weight Mean ([3]; 0.03% applied on skin): 0.96
- Total clinical score Mean ([3]; 0.03% applied on skin): 8.33
- Erythema score Mean ([3]; 0.03% applied on skin): 3.33
- Scale score Mean ([3]; 0.03% applied on skin): 2.5
- Thickness score Mean ([3]; 0.03% applied on skin): 2.5
- clinical score at the endpoint (statement) [3, 4]: significantly reduce the clinical score
- effect on the ratio of spleen weight to body weight (statement) [3, 4]: no significant effect
- increase of skin thickness (statement) ([3]; low and high dose groups of Compound 12-1 (0.01%, 0.1%), Compound A 0.03%): no significant effect
